Assay results reported in ChEMBL document CHEMBL1201862, “PubChem BioAssay data set” (2004).
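In this assay, cells in 96-well plates receive the compound at five concentrations for 48 hours. Endpoints are linearly interpolated between the surrounding concentrations. Abbreviation: GI50, concentration required for 50% inhibition of growth.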 Active and inactive are the calls of the source. Cut-off read from the data, not from the text of the source: active = GI50 up to about 1.1 µM and inactive = higher.

Columns and labels:
Assay in all cases: NCI-60 cell line screen, 48 h
786-0 = tested on: 786-0
A549 = tested on: A549
ACHN = tested on: ACHN
BT-549 = tested on: BT-549
CAKI-1 = tested on: CAKI-1
CCRF-CEM = tested on: CCRF-CEM
COLO 205 = tested on: COLO 205
DU-145 = tested on: DU-145
EKVX = tested on: EKVX
HCC 2998 = tested on: HCC 2998
HCT-116 = tested on: HCT-116
HCT-15 = tested on: HCT-15
HL-60 = tested on: HL-60
HOP-62 = tested on: HOP-62
HOP-92 = tested on: HOP-92
HT-29 = tested on: HT-29
Hs-578T = tested on: Hs-578T
IGROV-1 = tested on: IGROV-1
K562 = tested on: K562
KM12 = tested on: KM12
LOX IMVI = tested on: LOX IMVI
M14 = tested on: M14
MCF7 = tested on: MCF7
MDA-MB-231 = tested on: MDA-MB-231
MDA-MB-435 = tested on: MDA-MB-435
MDA-N = tested on: MDA-N
MOLT-4 = tested on: MOLT-4
Malme-3M = tested on: Malme-3M
NCI-H226 = tested on: NCI-H226
NCI-H460 = tested on: NCI-H460
NCI-H522 = tested on: NCI-H522
NCI/ADR-RES = tested on: NCI/ADR-RES
OVCAR-4 = tested on: OVCAR-4
OVCAR-5 = tested on: OVCAR-5
OVCAR-8 = tested on: OVCAR-8
PC-3 = tested on: PC-3
RPMI-8226 = tested on: RPMI-8226
RXF 393 = tested on: RXF 393
SF-268 = tested on: SF-268
SF-295 = tested on: SF-295
SF-539 = tested on: SF-539
SK-MEL-28 = tested on: SK-MEL-28
SK-MEL-2 = tested on: SK-MEL-2
SK-MEL-5 = tested on: SK-MEL-5
SK-OV-3 = tested on: SK-OV-3
SN12C = tested on: SN12C
SNB-19 = tested on: SNB-19
SNB-75 = tested on: SNB-75
SR = tested on: SR
SW-620 = tested on: SW-620
T47D = tested on: T47D
TK-10 = tested on: TK-10
U-251 = tested on: U-251
UACC-257 = tested on: UACC-257
UACC-62 = tested on: UACC-62
UO-31 = tested on: UO-31
A498 = tested on: A498
NCI-H23 = tested on: NCI-H23

O=c1oc2ccc([N+](=O)[O-])cc2cc1-c1csc(-c2ccccc2)n1
GI50 (786-0): > 100 µM (inactive)
GI50 (A549): > 100 µM (inactive)
GI50 (ACHN): > 100 µM (inactive)
GI50 (BT-549): > 100 µM (inactive)
GI50 (CAKI-1): > 100 µM (inactive)
GI50 (CCRF-CEM): > 100 µM (inactive)
GI50 (COLO 205): > 100 µM (inactive)
GI50 (DU-145): > 100 µM (inactive)
GI50 (EKVX): > 100 µM (inactive)
GI50 (HCC 2998): > 100 µM (inactive)
GI50 (HCT-116): > 100 µM (inactive)
GI50 (HCT-15): > 100 µM
GI50 (HL-60): > 100 µM (inactive)
GI50 (HOP-62): > 100 µM (inactive)
GI50 (HOP-92): > 100 µM (inactive)
GI50 (HT-29): > 100 µM (inactive)
GI50 (Hs-578T): > 100 µM (inactive)
GI50 (IGROV-1): > 100 µM (inactive)
GI50 (K562): > 100 µM (inactive)
GI50 (KM12): > 100 µM (inactive)
GI50 (LOX IMVI): > 100 µM (inactive)
GI50 (M14): > 100 µM (inactive)
GI50 (MCF7): > 100 µM (inactive)
GI50 (MDA-MB-231): > 100 µM (inactive)
GI50 (MDA-MB-435): > 100 µM (inactive)
GI50 (MDA-N): > 100 µM (inactive)
GI50 (MOLT-4): > 100 µM (inactive)
GI50 (Malme-3M): 32.6 µM (inactive)
GI50 (NCI-H226): > 100 µM (inactive)
GI50 (NCI-H460): > 100 µM (inactive)
GI50 (NCI-H522): > 100 µM (inactive)
GI50 (NCI/ADR-RES): > 100 µM (inactive)
GI50 (OVCAR-4): > 100 µM (inactive)
GI50 (OVCAR-5): > 100 µM (inactive)
GI50 (OVCAR-8): > 100 µM (inactive)
GI50 (PC-3): > 100 µM (inactive)
GI50 (RPMI-8226): > 100 µM (inactive)
GI50 (RXF 393): > 100 µM (inactive)
GI50 (SF-268): > 100 µM (inactive)
GI50 (SF-295): > 100 µM (inactive)
GI50 (SF-539): > 100 µM (inactive)
GI50 (SK-MEL-28): > 100 µM (inactive)
GI50 (SK-MEL-2): > 100 µM (inactive)
GI50 (SK-MEL-5): > 100 µM (inactive)
GI50 (SK-OV-3): > 100 µM (inactive)
GI50 (SN12C): > 100 µM (inactive)
GI50 (SNB-19): > 100 µM (inactive)
GI50 (SNB-75): 0.817 µM (active)
GI50 (SR): > 100 µM (inactive)
GI50 (SW-620): > 100 µM (inactive)
GI50 (T47D): > 100 µM (inactive)
GI50 (TK-10): > 100 µM (inactive)
GI50 (U-251): > 100 µM (inactive)
GI50 (UACC-257): > 100 µM (inactive)
GI50 (UACC-62): > 100 µM (inactive)
GI50 (UO-31): > 100 µM (inactive)

CCCNC(=O)N1CC(CN2CCN(c3ccccc3)CC2)O/C1=N/C(=O)Nc1ccccc1 (centres undefined)
GI50 (786-0): > 100 µM (inactive)
GI50 (A498): > 100 µM (inactive)
GI50 (A549): 63.4 µM (inactive)
GI50 (ACHN): > 100 µM (inactive)
GI50 (BT-549): > 100 µM (inactive)
GI50 (CAKI-1): > 100 µM (inactive)
GI50 (COLO 205): 33.3 µM (inactive)
GI50 (DU-145): 57.9 µM (inactive)
GI50 (EKVX): 71.8 µM (inactive)
GI50 (HCC 2998): > 100 µM (inactive)
GI50 (HCT-116): > 100 µM (inactive)
GI50 (HL-60): 3.83 µM (inactive)
GI50 (HOP-62): > 100 µM (inactive)
GI50 (HOP-92): 89.3 µM (inactive)
GI50 (HT-29): 68.7 µM (inactive)
GI50 (Hs-578T): > 100 µM (inactive)
GI50 (IGROV-1): > 100 µM (inactive)
GI50 (K562): > 100 µM (inactive)
GI50 (KM12): > 100 µM (inactive)
GI50 (LOX IMVI): 67.8 µM (inactive)
GI50 (M14): 65.9 µM (inactive)
GI50 (MCF7): > 100 µM (inactive)
GI50 (MDA-MB-231): > 100 µM (inactive)
GI50 (MDA-MB-435): 84.5 µM (inactive)
GI50 (MDA-N): > 100 µM (inactive)
GI50 (MOLT-4): > 100 µM (inactive)
GI50 (Malme-3M): 97.1 µM (inactive)
GI50 (NCI-H226): 2.09 µM (inactive)
GI50 (NCI-H23): 73.8 µM (inactive)
GI50 (NCI-H460): > 100 µM (inactive)
GI50 (NCI-H522): 40.7 µM (inactive)
GI50 (NCI/ADR-RES): 50.6 µM (inactive)
GI50 (OVCAR-4): 90.4 µM (inactive)
GI50 (OVCAR-5): > 100 µM (inactive)
GI50 (PC-3): 45.5 µM (inactive)
GI50 (RPMI-8226): > 100 µM (inactive)
GI50 (RXF 393): 43.3 µM (inactive)
GI50 (SF-268): > 100 µM (inactive)
GI50 (SF-295): > 100 µM (inactive)
GI50 (SK-MEL-28): > 100 µM (inactive)
GI50 (SK-MEL-2): 45.3 µM (inactive)
GI50 (SK-MEL-5): 40.8 µM (inactive)
GI50 (SK-OV-3): > 100 µM (inactive)
GI50 (SN12C): > 100 µM (inactive)
GI50 (SNB-19): > 100 µM (inactive)
GI50 (SNB-75): 76.2 µM (inactive)
GI50 (SW-620): > 100 µM (inactive)
GI50 (T47D): 18.2 µM (inactive)
GI50 (TK-10): 82.4 µM (inactive)
GI50 (U-251): > 100 µM (inactive)
GI50 (UACC-257): 46.8 µM (inactive)
GI50 (UACC-62): 99.3 µM (inactive)
GI50 (UO-31): 30.5 µM (inactive)
